The results in this text go back to patent US11427548B2 (Arvinas Operations, Inc., priority 2015, dated 2022).

Read-outs that look alike come from different tables or passages of the source.

The target in assay [1] is T1, Androgen Receptor (Homo sapiens, UniProt P10275+P40337, T878A).
T1 construct: Compounds have been evaluated in this assay in LNCaP and/or VCaP cells utilizing similar protocols; endogenous in cells; host or cells: LNCaP cells
Kind of assay: Androgen Receptor ELISA assay (PathScan AR ELISA) in LNCaP cells: AR degradation, Dmax and DC50. The assay is classed as cell-based. Background: ELISA stands for enzyme-linked immunosorbent assay.

Assay [2] has as its target T2, Androgen Receptor (Homo sapiens, UniProt P10275).
T2 construct: endogenous in cells; host or cells: VCaP cells
T2 sequence (P10275 1-920): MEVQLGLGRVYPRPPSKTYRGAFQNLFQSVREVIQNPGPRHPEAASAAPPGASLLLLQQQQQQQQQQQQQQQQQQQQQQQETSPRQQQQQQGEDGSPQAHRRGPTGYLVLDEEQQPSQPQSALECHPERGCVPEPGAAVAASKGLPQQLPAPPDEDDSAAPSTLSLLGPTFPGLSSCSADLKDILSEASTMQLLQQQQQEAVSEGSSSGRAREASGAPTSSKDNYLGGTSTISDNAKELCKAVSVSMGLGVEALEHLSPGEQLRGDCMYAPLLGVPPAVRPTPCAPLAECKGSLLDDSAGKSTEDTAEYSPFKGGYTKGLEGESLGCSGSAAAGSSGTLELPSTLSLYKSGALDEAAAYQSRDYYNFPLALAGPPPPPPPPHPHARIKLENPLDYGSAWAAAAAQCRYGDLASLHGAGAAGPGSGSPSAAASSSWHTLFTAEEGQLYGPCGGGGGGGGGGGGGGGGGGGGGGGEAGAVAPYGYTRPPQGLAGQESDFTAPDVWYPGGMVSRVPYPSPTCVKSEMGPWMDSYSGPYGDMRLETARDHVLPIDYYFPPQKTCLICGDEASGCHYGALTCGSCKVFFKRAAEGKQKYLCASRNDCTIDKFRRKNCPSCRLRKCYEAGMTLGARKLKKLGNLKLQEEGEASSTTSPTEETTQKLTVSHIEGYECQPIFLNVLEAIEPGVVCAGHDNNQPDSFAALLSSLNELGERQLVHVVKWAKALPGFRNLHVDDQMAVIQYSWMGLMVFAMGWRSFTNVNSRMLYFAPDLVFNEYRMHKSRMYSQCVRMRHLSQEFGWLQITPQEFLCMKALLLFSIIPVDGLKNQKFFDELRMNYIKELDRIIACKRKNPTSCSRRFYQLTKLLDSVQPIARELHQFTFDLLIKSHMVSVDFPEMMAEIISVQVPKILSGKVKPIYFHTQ
Kind of assay: Androgen Receptor ELISA assay (PathScan AR ELISA) in VCaP cells: AR degradation, Dmax and DC50. The assay is classed as cell-based. The settings on record: for DC50: read-out: VCaP DC50; for Dmax: VCaP, read-out: VCaP Dmax (%). In outline: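 After 24 h exposure of VCaP cells (charcoal-stripped serum, 0.1 nM R1881 agonist, 0.1% DMSO) to seven half-log compound concentrations, residual AR in lysates was measured by PathScan ELISA (TMB absorbance, 450 nm). Cells were plated at 30,000/well and grown at least 3 days beforehand.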

T1 sequence (P10275 whole entry T878A): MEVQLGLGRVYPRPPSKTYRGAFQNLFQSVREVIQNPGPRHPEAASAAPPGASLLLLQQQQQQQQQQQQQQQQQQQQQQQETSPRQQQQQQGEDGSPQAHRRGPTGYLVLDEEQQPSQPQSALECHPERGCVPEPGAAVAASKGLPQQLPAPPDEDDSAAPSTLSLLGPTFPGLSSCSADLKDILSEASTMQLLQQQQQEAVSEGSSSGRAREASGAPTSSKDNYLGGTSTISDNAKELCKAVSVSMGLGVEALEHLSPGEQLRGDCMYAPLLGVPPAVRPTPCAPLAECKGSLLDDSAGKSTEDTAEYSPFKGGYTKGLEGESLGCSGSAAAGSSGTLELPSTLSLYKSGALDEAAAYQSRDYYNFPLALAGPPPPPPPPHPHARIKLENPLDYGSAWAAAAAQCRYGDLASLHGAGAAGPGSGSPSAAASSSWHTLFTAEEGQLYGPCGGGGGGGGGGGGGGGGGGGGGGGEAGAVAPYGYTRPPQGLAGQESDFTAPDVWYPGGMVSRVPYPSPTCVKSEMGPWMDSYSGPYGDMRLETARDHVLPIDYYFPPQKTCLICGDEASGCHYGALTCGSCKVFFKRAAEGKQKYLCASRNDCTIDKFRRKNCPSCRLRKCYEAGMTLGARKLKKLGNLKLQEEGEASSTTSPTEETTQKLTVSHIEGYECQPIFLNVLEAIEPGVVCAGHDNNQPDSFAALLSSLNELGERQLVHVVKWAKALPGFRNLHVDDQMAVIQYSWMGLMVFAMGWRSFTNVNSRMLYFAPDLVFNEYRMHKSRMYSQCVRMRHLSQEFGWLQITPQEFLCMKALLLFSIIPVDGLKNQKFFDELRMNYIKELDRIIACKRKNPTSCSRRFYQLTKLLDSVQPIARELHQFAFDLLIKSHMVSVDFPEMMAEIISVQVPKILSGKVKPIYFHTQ
T1 sequence (P40337 whole entry): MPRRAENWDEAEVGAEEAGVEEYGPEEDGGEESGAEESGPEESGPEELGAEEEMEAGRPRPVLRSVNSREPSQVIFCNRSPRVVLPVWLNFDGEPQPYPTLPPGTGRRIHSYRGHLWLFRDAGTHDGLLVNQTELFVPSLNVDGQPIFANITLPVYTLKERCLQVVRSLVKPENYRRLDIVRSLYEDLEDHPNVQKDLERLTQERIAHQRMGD
T1 sequence (Q15369 whole entry partner): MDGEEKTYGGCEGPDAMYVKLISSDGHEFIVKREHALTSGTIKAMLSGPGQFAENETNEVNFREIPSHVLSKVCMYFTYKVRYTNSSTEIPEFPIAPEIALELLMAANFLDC
T1 sequence (Q15370 whole entry partner): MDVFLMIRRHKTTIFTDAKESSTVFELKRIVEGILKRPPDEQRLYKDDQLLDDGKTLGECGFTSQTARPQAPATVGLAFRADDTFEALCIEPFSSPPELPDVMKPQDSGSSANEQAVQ

Molecule `Cc1ncsc1-c1ccc(CNC(=O)[C@@H]2C[C@@H](O)CN2C(=O)[C@@H](NC(=O)COCCCOCCCCCOc2ccc(N3C(=S)N(c4ccc(C#N)c(C(F)(F)F)c4)C(=O)C3(C)C)cc2F)C(C)(C)C)cc1` [Example 3, (2S,4R)-1-[(2S)-2-[2-(3-{[5-(4-{3-[4-cyano-3-(trifluoromethyl)phenyl]-5,5-dimethyl-4-oxo-2-sulfanylideneimidazolidin-1-yl}-2-fluorophenoxy)pentyl]oxy}propoxy)acetamido]-3,3-dimethylbutanoyl]-4-hydroxy-N-{[4-(4-methyl-1,3-thiazol-5-yl)phenyl]methyl}pyrrolidine-2-carboxamide] came in with a DC50 on Androgen Receptor [1] (concentration that caused 50% Androgen Receptor degradation) of under 50 nM. On Androgen Receptor [1] (highest percentage of Androgen Receptor degradation observed), this molecule returned a Dmax of over 71%.
For `Cc1ncsc1-c1ccc([C@H](C)NC(=O)[C@@H]2C[C@@H](O)CN2C(=O)[C@@H](NC(=O)COCCN2CCN(c3ccc(C(=O)N[C@H]4C(C)(C)[C@H](Oc5ccc(C#N)c(C(F)(F)F)c5)C4(C)C)cn3)CC2)C(C)(C)C)cc1` [Example 855, N-((1r,3r)-3-(4-cyano-3-(trifluoromethyl)phenoxyl)-2,2,4,4-tetramethylcyclobutyl)-6-(4-(2-(2-(((S)-1-((2S, 4R)-4-hyrdoxy-2-(((S)-1-(4-(4-methylthiazol-5-yl)phenyl)ethyl)carbamoyl)pyrrolidin-1-yl)-3,3-dimethyl-1-oxobutan-2-yl)amino)-2-oxoethoxy)ethyl)piperazin-1-yl) nicotinamide], on Androgen Receptor [2] (VCaP cells, Table 36), the DC50 is under 50 nM and the Dmax is over 71%.
For `Cc1ncsc1-c1ccc([C@H](C)NC(=O)[C@@H]2CC(O)CN2C(=O)[C@H](C(C)C)N2Cc3ccc(OCCN4CCN(c5ccc(C(=O)N[C@H]6C(C)(C)[C@H](Oc7ccc(C#N)c(Cl)c7)C6(C)C)cn5)CC4)cc3C2=O)cc1` (stereo partly drawn) [Example 856, N-((1r,3r)-3-(3-chloro-4-cyanophenoxy)-2,2,4,4-tetramethylcyclobutyl)-6-(4-(2-((2-((S)-1-((2S, 4R)-4-hydroxy-2-(((S)-1-(4-(4-methylthiazol-5-yl)phenyl)ethyl)carbamoyl)pyrrolidin-1-yl)-3-methyl-1-oxobutan-2-yl)-3-oxoisoindolin-5-yl)oxy)ethyl)piperazin-1-yl)nicotinamide], in that order: over 501 nM and under 25%.
Regarding `CC(=O)O[C@@H]1C[C@@H](C(=O)N[C@@H](C)c2ccc(-c3scnc3C)cc2)N(C(=O)[C@H](C(C)C)N2Cc3ccc(OCCN4CCN(c5ccc(C(=O)N[C@H]6C(C)(C)[C@H](Oc7ccc(C#N)c(Cl)c7)C6(C)C)cn5)CC4)cc3C2=O)C1` [Example 857, (3R,5S)-1-((S)-2-(6-(2-(4-(5-(((1r,3r)-3-(3-chloro-4-cyanophenoxy)-2,2,4,4-tetramethylcyclobutyl)carbamoyl)pyridin-2-yl)piperazin-1-yl)ethoxy)-1-oxoisoindolin-2-yl)-3-methylbutanoyl)-5-(((S)-1-(4-(4-methylthiazol-5-yl)phenyl)ethyl)carbamoyl)pyrrolidin-3-yl acetate], at Androgen Receptor [2] (VCaP cells, Table 36), the DC50 is over 501 nM. For the same molecule, the greatest degradation seen (Dmax) at Androgen Receptor [2] is under 25%.
Taken in the same sequence, the figures for `Cc1ncsc1-c1ccc([C@H](C)NC(=O)[C@H]2C[C@H](O)CN2C(=O)[C@@H](NC(=O)CN2C3CCC2CN(CCCCc2ccc(C(=O)N[C@H]4C(C)(C)[C@H](Oc5ccc(C#N)c(Cl)c5)C4(C)C)cc2)C3)C(C)(C)C)cc1` [Example 858, (2R,4S)-1-((2S)-2-(2-(3-(4-(4-(((1r,3r)-3-(3-chloro-4-cyanophenoxy)-2,2,4,4-tetramethylcyclobutyl)carbamoyl)phenyl)butyl)-3,8-diazabicyclo[3.2.1]octan-8-yl)acetamido)-3,3-dimethylbutanoyl)-4-hydroxy-N-((S)-1-(4-(4-methylthiazol-5-yl)phenyl)ethyl) pyrrolidine-2-carboxamide] were over 501 nM and under 25%.
Take `Cc1ncsc1-c1ccc([C@H](CO)NC(=O)[C@@H]2C[C@@H](O)CN2C(=O)[C@@H](NC(=O)CN2CCN(CCCCc3ccc(C(=O)N[C@H]4C(C)(C)[C@H](Oc5ccc(C#N)c(Cl)c5)C4(C)C)cc3)CC2)C(C)(C)C)cc1` [Example 859, (2S,4R)-1-((S)-2-(2-(4-(4-(4-(((1r,3r)-3-(3-chloro-4-cyanophenoxy)-2,2,4,4-tetramethylcyclobutyl)carbamoyl)phenyl)butyl)piperazin-1-yl)acetamido)-3,3-dimethylbutanoyl)-4-hydroxy-N-((R)-2-hydroxy-1-(4-(4-methylthiazol-5-yl)phenyl)ethyl) pyrrolidine-2-carboxamide]: on Androgen Receptor [2] (VCaP cells, Table 36), the DC50 was under 50 nM and the Dmax was over 71%.
For `Cc1ncsc1-c1ccc([C@H](C)NC(=O)[C@@H]2C[C@@H](O)CN2C(=O)[C@@H](NC(=O)CN[C@H]2C[C@H](N3CCN(c4ccc(C(=O)N[C@H]5C(C)(C)[C@H](Oc6ccc(C#N)c(Cl)c6)C5(C)C)cn4)CC3)C2)C(C)(C)C)cc1` [Example 860, N-((1r,3R)-3-(3-chloro-4-cyanophenoxy)-2,2,4,4-tetramethylcyclobutyl)-6-(4-((1S,3R)-3-((2-(((S)-1-((2S,4R)-4-hydroxy-2-(((S)-1-(4-(4-methylthiazol-5-yl)phenyl)ethyl)carbamoyl)pyrrolidin-1-yl)-3,3-dimethyl-1-oxobutan-2-yl)amino)-2-oxoethyl)amino)cyclobutyl)piperazin-1-yl)nicotinamide], the DC50 at Androgen Receptor [2] (VCaP cells, Table 36) was under 50 nM. Moreover, the Dmax at Androgen Receptor [2] was in the range of 51 to 70%.
Taken in the same sequence, the figures for `Cc1ncsc1-c1ccc([C@H](C)NC(=O)[C@@H]2C[C@@H](O)CN2C(=O)[C@@H](NC(=O)CN[C@H]2C[C@@H](N3CCN(c4ccc(C(=O)N[C@H]5C(C)(C)[C@H](Oc6ccc(C#N)c(Cl)c6)C5(C)C)cn4)CC3)C2)C(C)(C)C)cc1` [Example 861, N-((1r,3R)-3-(3-chloro-4-cyanophenoxy)-2,2,4,4-tetramethylcyclobutyl)-6-(4-((1R,3S)-3-((2-(((S)-1-((2S,4R)-4-hydroxy-2-(((S)-1-(4-(4-methylthiazol-5-yl)phenyl)ethyl)carbamoyl)pyrrolidin-1-yl)-3,3-dimethyl-1-oxobutan-2-yl)amino)-2-oxoethyl)amino)cyclobutyl)piperazin-1-yl)nicotinamide] were under 50 nM and 51 to 70%.
For `Cc1ncsc1-c1ccc([C@H](C)NC(=O)[C@@H]2C[C@@H](OC(=O)CCC(=O)O)CN2C(=O)[C@@H](NC(=O)COCCN2CCN(c3ccc(C(=O)N[C@H]4C(C)(C)[C@H](Oc5ccc(C#N)c(Cl)c5)C4(C)C)cn3)CC2)C(C)(C)C)cc1` [Example 862, 4-(((3R,5S)-1-((S)-2-(2-(2-(4-(5-(((1r,3r)-3-(3-chloro-4-cyanophenoxy)-2,2,4,4-tetramethylcyclobutyl)carbamoyl)pyridin-2-yl)piperazin-1-yl)ethoxy)acetamido)-3,3-dimethylbutanoyl)-5-(((S)-1-(4-(4-methylthiazol-5-yl)phenyl)ethyl)carbamoyl)pyrrolidin-3-yl)oxy)-4-oxobutanoic acid], on Androgen Receptor [2] (VCaP cells, Table 36), the DC50 was under 50 nM and the Dmax is over 71%.
For `[2H]C(Nc1ccc(C(=O)N[C@H]2C(C)(C)[C@H](Oc3ccc(C#N)c(Cl)c3)C2(C)C)cc1)C([2H])([2H])C([2H])([2H])C([2H])([2H])C([2H])([2H])OCC(=O)N[C@H](C(=O)N1C[C@H](O)C[C@H]1C(=O)N[C@@H](C)c1ccc(-c2scnc2C)cc1)C(C)(C)C` (stereo partly shown) [Example 863], in that order: under 50 nM and over 71%.
Regarding `C/C(=N\OCCN1CCN(CC(=O)N[C@H](C(=O)N2C[C@H](O)C[C@H]2C(=O)N[C@@H](C)c2ccc(-c3scnc3C)cc2)C(C)(C)C)CC1)c1cc(C(=O)N[C@@H](C)Cn2ccc(-c3ccc(C#N)c(Cl)c3)n2)n[nH]1` [Example 864, N-((S)-1-(3-(3-Chloro-4-cyanophenyl)-1H-pyrazol-1-yl)propan-2-yl)-5-((E)-1-((2-(4-(2-(((S)-1-((2S,4R)-4-hydroxy-2-(((S)-1-(4-(4-methylthiazol-5-yl)phenyl)ethyl)carbamoyl)pyrrolidin-1-yl)-3,3-dimethyl-1-oxobutan-2-yl)amino)-2-oxoethyl)piperazin-1-yl)ethoxy)imino)ethyl)-1H-pyrazole-3-carboxamide], on Androgen Receptor [2] (VCaP cells, Table 36), the half-maximal degradation concentration (DC50) is under 50 nM and the Dmax is under 25%.

As usually defined, the DC50 is the concentration giving 50% degradation. The term Dmax denotes the largest share of the target that was removed.
